Laboratory results published in the COVID Moonshot data (paper PMC7615835).
Where “and” joins values, the source holds several entries; their conditions need not be identical. Equal values may be shown once.

Key:
[1] = in vivo, iv, 0.5 mg/kg
[2] = biological target: SARS-CoV-2 Main Protease (SARS-CoV-2) (UniProt P0DTD1)

Row | SMILES | AUC(0-inf) ([1]; rat) | AUC(0-t) ([1]; rat) | C0 ([1]; rat) | MRT inf ([1]; rat) | MRT last ([1]; rat) | Vd ([1]; rat) | clearance ([1]; rat) | half-life ([1]; rat) | IC50 [2] | CC50 (a549) [nM] | other results
1 | CS(=O)(=O)c1ccc2cncc(NC(=O)C3CNC(=O)c4ccc(Cl)cc43)c2c1 (stereo unspecified) | 177 ng·h/mL and 160 ng·h/mL | 175 ng·h/mL and 157 ng·h/mL | 636 ng/mL and 540 ng/mL | 25.6 min and 22 min | 20.7 min and 22.8 min | 1.08 L/kg and 1.38 L/kg | 49 mL/min/kg and 54.2 mL/min/kg | 19.3 min and 23.4 min | 2740 nM | – | –
2 | O=C(Nc1cncc2ccccc12)C1CCOc2c(OCc3ccncc3)cc(Cl)cc21 (stereo unspecified) | – | – | – | – | – | – | – | – | 3450 nM | > 9990 | –
3 | CC1CN(S(C)(=O)=O)CCC1NC(=O)CC1(C(=O)Nc2cncc3ccccc23)CCOc2ccc(Cl)cc21 (stereo unspecified) | – | – | – | – | – | – | – | – | 2790 nM | > 9990 | –
4 | O=C(Cc1cccc(Cl)c1)Nc1cncc2c(F)cccc12 | 140 ng·h/mL and 138 ng·h/mL | 139 ng·h/mL and 136 ng·h/mL | 515 ng/mL and 498 ng/mL | 19.8 min and 20.1 min | 19.1 min and 18.7 min | 1.02 L/kg | 50.8 mL/min/kg and 51.6 mL/min/kg | 17.4 min and 18.2 min | 890 nM | – | –
5 | Cc1nc2n(n1)CC(C(=O)NC(C)(C(=O)Nc1cncc3ccccc13)c1ccc(Cl)c(Cl)c1)CC2 (stereo unspecified) | – | – | – | – | – | – | – | – | 3440 nM and 6760 nM | > 9990 | –
6 | CNC(=O)N1Cc2ccc(Cl)cc2C(C(=O)Nc2cncc3ccccc23)C1 (stereo unspecified) | – | – | – | – | – | – | – | – | 272 nM | – | AUC(0-inf) ([1]; mouse): 97.6 ng·h/mL and 117 ng·h/mL; AUC(0-t) ([1]; mouse): 94.9 ng·h/mL and 115 ng·h/mL; C0 ([1]; mouse): 328 ng/mL and 570 ng/mL; MRT inf ([1]; mouse): 16.4 min and 13.4 min; MRT last ([1]; mouse): 14.7 min and 12.5 min; Vd ([1]; mouse): 1.32 L/kg and 0.896 L/kg; clearance ([1]; mouse): 80.4 mL/min/kg and 68.2 mL/min/kg; half-life ([1]; mouse): 11.5 min and 9.96 min
7 | O=C1CC(C(=O)Nc2cncc3ccccc23)c2cc(Cl)c(Cl)cc2N1 (stereo unspecified) | – | – | – | – | – | – | – | – | 196 nM and 356 nM | – | AUC(0-inf) ([1]; mouse): 199 ng·h/mL and 230 ng·h/mL; AUC(0-t) ([1]; mouse): 197 ng·h/mL and 226 ng·h/mL; C0 ([1]; mouse): 268 ng/mL and 390 ng/mL; MRT inf ([1]; mouse): 44.9 min and 49.9 min; MRT last ([1]; mouse): 42.4 min and 45.4 min; Vd ([1]; mouse): 1.88 L/kg and 1.81 L/kg; clearance ([1]; mouse): 41.9 mL/min/kg and 36.2 mL/min/kg; half-life ([1]; mouse): 34.4 min and 43.6 min
8 | C=CC(=O)N(C(=O)[C@H]1CCOc2ccc(Cl)cc21)c1cncc2ccccc12 (stereo in doubt) | – | – | – | – | – | – | – | – | – | > 9990 | CC50 (vero): > 9990 nM
9 | COCCN1CCC(C(=O)Nc2cncc3ccccc23)c2cc(Cl)ccc21 (stereo unspecified) | – | – | – | – | – | – | – | – | 564 nM | > 9990 | –
10 | O=C(Cc1cccc(Cl)c1)Nc1cncc2cn[nH]c12 | 216 ng·h/mL and 364 ng·h/mL | 216 ng·h/mL and 356 ng·h/mL | 986 ng/mL and 1030 ng/mL | 25.6 min and 15.7 min | 15.4 min and 23.3 min | 0.604 L/kg and 0.594 L/kg | 38.6 mL/min/kg and 25.6 mL/min/kg | 14.4 min and 19.9 min | 2100 nM | – | –
11 | O=C(Cc1cccc(Cl)c1)Nc1cnc2ccccn12 | 285 ng·h/mL and 249 ng·h/mL | 284 ng·h/mL and 247 ng·h/mL | 663 ng/mL and 588 ng/mL | 26.8 min and 26.9 min | 26.4 min and 25.6 min | 0.788 L/kg and 0.895 L/kg | 29.2 mL/min/kg and 33.5 mL/min/kg | 25.6 min and 22.8 min | 8030 nM | – | –
12 | Cc1c(N)cncc1NC(=O)Cc1cccc(Cl)c1 | 210 ng·h/mL and 187 ng·h/mL | 209 ng·h/mL and 185 ng·h/mL | 485 ng/mL and 446 ng/mL | 28.8 min and 30.5 min | 29.5 min and 27.3 min | 1.21 L/kg and 1.28 L/kg | 39.8 mL/min/kg and 44.6 mL/min/kg | 28.2 min and 25 min | 4220 nM | – | –
13 | CN(C)C(=O)CC1(C(=O)Nc2cncc3ccccc23)CCOc2ccc(Cl)cc21 (stereo unspecified) | – | – | – | – | – | – | – | – | 2920 nM | > 9990 | –
14 | O=C(Nc1cncc2ccccc12)C(NC(=O)[C@@H]1CCCO1)c1cccc(Cl)c1 (stereo in doubt) | – | – | – | – | – | – | – | – | 2290 nM | > 9990 | –
15 | COc1cccc2[nH]c(=O)cc(C(=O)NCCOc3ccccc3OCC3CC3)c12 | – | – | – | – | – | – | – | – | – | > 10000 | –
16 | O=C(Cc1cccc(Cl)c1)Nc1c[nH]c(=O)c2ccccc12 | 200 ng·h/mL and 464 ng·h/mL | 192 ng·h/mL and 458 ng·h/mL | 496 ng/mL and 718 ng/mL | 42.7 min and 34.1 min | 29.2 min and 40.5 min | 1.42 L/kg and 0.802 L/kg | 41.6 mL/min/kg and 19.6 mL/min/kg | 26.2 min and 25.4 min | > 99500 nM | – | –

Row | SMILES | AUC(0-inf) ([1]; rat) | AUC(0-t) ([1]; rat) | C0 ([1]; rat) | MRT inf ([1]; rat) | MRT last ([1]; rat) | Vd ([1]; rat) | clearance ([1]; rat) | half-life ([1]; rat) | IC50 [2] | CC50 (a549) [nM] | other results
17 | O=C(Cc1cccc(Cl)c1)Nc1cnn2ccccc12 | 209 ng·h/mL and 179 ng·h/mL | 201 ng·h/mL and 176 ng·h/mL | 652 ng/mL and 621 ng/mL | 31.1 min | 25.4 min and 27.5 min | 1.24 L/kg and 1.44 L/kg | 39.8 mL/min/kg and 46.6 mL/min/kg | 29.4 min and 33.7 min | 11300 nM | – | –
18 | O=C(Cc1cccc(Cl)c1)Nc1cncc2cc[nH]c12 | 129 ng·h/mL and 176 ng·h/mL and 114 ng·h/mL | 128 ng·h/mL and 172 ng·h/mL and 113 ng·h/mL | 320 ng/mL and 470 ng/mL and 344 ng/mL | 29.9 min and 38.2 min and 23 min | 35.3 min and 27 min and 21.6 min | 2.47 L/kg and 1.46 L/kg and 2.1 L/kg | 64.5 mL/min/kg and 48.4 mL/min/kg and 91.1 mL/min/kg | 42.8 min and 22.7 min and 19.5 min | 1900 nM | – | –
19 | Cc1cccc2cncc(NC(=O)Cc3cccc(Cl)c3)c12 | 206 ng·h/mL and 112 ng·h/mL | 203 ng·h/mL and 111 ng·h/mL | 934 ng/mL and 490 ng/mL | 21.8 min and 18.2 min | 16.2 min and 19.9 min | 0.737 L/kg and 1.83 L/kg | 40.4 mL/min/kg and 84.8 mL/min/kg | 24.9 min and 34.8 min | 331 nM | – | –
20 | CS(=O)(=O)N1Cc2ccc(Cl)cc2C(C(=O)Nc2cncc3cccc(F)c23)C1 (stereo unspecified) | 110 ng·h/mL and 136 ng·h/mL | 107 ng·h/mL and 134 ng·h/mL | 332 ng/mL and 376 ng/mL | 25.8 min and 25.9 min | 22.9 min and 23.5 min | 1.57 L/kg and 1.26 L/kg | 60.6 mL/min/kg and 48.6 mL/min/kg | 23.9 min and 20.4 min | 951 nM | – | –
21 | CC(C)(C)c1ccc(N(C(=O)c2cocn2)C(C(=O)NC2COC2)c2cccnc2)cc1 (stereo unspecified) | – | – | – | – | – | – | – | – | 4070 nM | – | CC50 (vero): > 10000 nM
22 | COC(=O)C1(NC(=O)C(c2cccnc2)N(C(=O)c2cocn2)c2ccc(C(C)(C)C)cc2)CCCC1 (stereo unspecified) | – | – | – | – | – | – | – | – | 5260 nM | – | CC50 (vero): > 10000 nM
23 | Cn1ncc2cncc(NC(=O)Cc3cccc(Cl)c3)c21 | 178 ng·h/mL and 250 ng·h/mL | 178 ng·h/mL and 248 ng·h/mL | 820 ng/mL and 1030 ng/mL | 19.3 min and 15.2 min | 14.9 min and 18.1 min | 0.709 L/kg and 0.64 L/kg | 46.7 mL/min/kg and 34.6 mL/min/kg | 14.9 min and 17.9 min | 1500 nM | – | –
24 | CS(=O)(=O)N1Cc2ccc(Cl)cc2C(C(=O)Nc2cncc3ccccc23)C1 (stereo unspecified) | – | – | – | – | – | – | – | – | – | – | AUC(0-inf) ([1]; mouse): 125 ng·h/mL and 139 ng·h/mL; AUC(0-t) ([1]; mouse): 124 ng·h/mL and 138 ng·h/mL; C0 ([1]; mouse): 399 ng/mL and 588 ng/mL; MRT inf ([1]; mouse): 21.6 min and 18.2 min; MRT last ([1]; mouse): 20.8 min and 17.6 min; Vd ([1]; mouse): 1.4 L/kg and 1.06 L/kg; clearance ([1]; mouse): 64.9 mL/min/kg and 59 mL/min/kg; half-life ([1]; mouse): 16.7 min
25 | N#Cc1ncc(NC(=O)Cc2cccc(Cl)c2)c2ccccc12 | 242 ng·h/mL and 224 ng·h/mL | 241 ng·h/mL and 222 ng·h/mL | 809 ng/mL and 728 ng/mL | 28.6 min and 29.3 min | 28.2 min and 26.5 min | 1.17 L/kg and 1.23 L/kg | 39.9 mL/min/kg and 43.2 mL/min/kg | 35.3 min and 42.1 min | 65900 nM | – | –
26 | CC1Cn2nccc2CN1C(=O)CC1(C(=O)Nc2cncc3ccccc23)CCOc2ccc(Cl)cc21 (stereo unspecified) | – | – | – | – | – | – | – | – | 1560 nM and 2850 nM | > 9990 | –
27 | Cc1ccc(CC(=O)Nc2cncc3ccccc23)cc1Cl | – | – | – | – | – | – | – | – | 1090 nM | > 9990 | –
28 | CCCc1cc(Cl)cc(CC(=O)Nc2cncc3ccccc23)c1 | – | – | – | – | – | – | – | – | 2650 nM | > 9990 | –
29 | C=CC(=O)N(C(=O)C1CCOc2ccc(Cl)cc21)c1cncc2ccccc12 (stereo unspecified) | – | – | – | – | – | – | – | – | – | > 10000 | –
30 | Cc1cc2c(NC(=O)C3CCOc4ccc(Cl)cc43)cncc2s1 (stereo unspecified) | 122 ng·h/mL and 130 ng·h/mL | 118 ng·h/mL and 128 ng·h/mL | 342 ng/mL and 378 ng/mL | 26.3 min and 28.9 min | 25.1 min and 24.1 min | 1.76 L/kg and 1.52 L/kg | 60.8 mL/min/kg and 58 mL/min/kg | 22.4 min and 25 min | 228 nM | – | –
31 | CN(CCO)S(=O)(=O)N1Cc2ccc(Cl)cc2C2(CCN(c3cncc4ccccc34)C2=O)C1 (stereo unspecified) | – | – | – | – | – | – | – | – | 699 nM | – | –
32 | Cc1csc2ncc(C(=O)N3C4CCC3c3ccccc34)c(=O)n12 | – | – | – | – | – | – | – | – | > 99500 nM | – | –
